Holding throughout (type): ADME
The target in one assay is Cytochrome P450 2D6 (Homo sapiens, UniProt P10635). Description: Inhibition of human CYP2D6.
Another assay addresses Cytochrome P450 2C9 (Homo sapiens, UniProt P11712). Description: Inhibition of human CYP2C9.
In a further assay the target is Cytochrome P450 3A4 (Homo sapiens, UniProt P08684). Description: Inhibition of human CYP3A4.
A further assay deals with T1, Cytochrome P450 1A2 (Homo sapiens, UniProt P05177).
T1 sequence (P05177 whole entry): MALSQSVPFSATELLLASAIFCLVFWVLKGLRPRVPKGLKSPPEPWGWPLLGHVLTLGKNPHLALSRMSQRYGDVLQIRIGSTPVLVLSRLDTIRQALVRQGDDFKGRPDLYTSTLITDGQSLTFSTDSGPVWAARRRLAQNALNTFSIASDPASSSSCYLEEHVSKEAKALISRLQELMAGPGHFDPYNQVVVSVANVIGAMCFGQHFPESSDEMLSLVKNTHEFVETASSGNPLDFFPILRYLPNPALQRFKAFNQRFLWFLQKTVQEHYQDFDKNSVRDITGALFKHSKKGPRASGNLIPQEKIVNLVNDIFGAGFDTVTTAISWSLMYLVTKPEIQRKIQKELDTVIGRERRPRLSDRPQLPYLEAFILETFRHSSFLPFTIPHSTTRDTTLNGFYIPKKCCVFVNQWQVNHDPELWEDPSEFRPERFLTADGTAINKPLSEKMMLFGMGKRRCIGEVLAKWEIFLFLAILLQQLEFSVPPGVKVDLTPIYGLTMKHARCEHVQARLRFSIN
As to the kind of experiment: Inhibition of human CYP1A2.

This note sets out measurements from ChEMBL document CHEMBL1255203 (Bioorg Med Chem Lett, 2010).

By IC50 is commonly meant the concentration that inhibits the measured activity by half. A higher IC50 goes with lower potency.

Chain of Cytochrome P450 2D6 (P10635 whole entry): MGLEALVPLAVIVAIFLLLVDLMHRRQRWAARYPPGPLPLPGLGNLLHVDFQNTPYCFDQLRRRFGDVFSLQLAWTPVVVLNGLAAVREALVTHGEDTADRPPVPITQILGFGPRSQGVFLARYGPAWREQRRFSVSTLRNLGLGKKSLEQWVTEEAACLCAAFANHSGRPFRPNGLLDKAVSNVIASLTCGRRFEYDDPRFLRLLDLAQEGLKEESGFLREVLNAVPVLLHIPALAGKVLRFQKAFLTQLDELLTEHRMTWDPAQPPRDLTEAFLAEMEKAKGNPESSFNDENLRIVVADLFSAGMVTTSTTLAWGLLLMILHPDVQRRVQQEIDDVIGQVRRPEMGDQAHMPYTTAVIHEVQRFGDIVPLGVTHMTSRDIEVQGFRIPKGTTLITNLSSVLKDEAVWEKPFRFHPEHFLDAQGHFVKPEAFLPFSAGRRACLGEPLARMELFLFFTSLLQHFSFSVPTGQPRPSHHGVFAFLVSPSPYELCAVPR
Chain of Cytochrome P450 3A4 (P08684 whole entry): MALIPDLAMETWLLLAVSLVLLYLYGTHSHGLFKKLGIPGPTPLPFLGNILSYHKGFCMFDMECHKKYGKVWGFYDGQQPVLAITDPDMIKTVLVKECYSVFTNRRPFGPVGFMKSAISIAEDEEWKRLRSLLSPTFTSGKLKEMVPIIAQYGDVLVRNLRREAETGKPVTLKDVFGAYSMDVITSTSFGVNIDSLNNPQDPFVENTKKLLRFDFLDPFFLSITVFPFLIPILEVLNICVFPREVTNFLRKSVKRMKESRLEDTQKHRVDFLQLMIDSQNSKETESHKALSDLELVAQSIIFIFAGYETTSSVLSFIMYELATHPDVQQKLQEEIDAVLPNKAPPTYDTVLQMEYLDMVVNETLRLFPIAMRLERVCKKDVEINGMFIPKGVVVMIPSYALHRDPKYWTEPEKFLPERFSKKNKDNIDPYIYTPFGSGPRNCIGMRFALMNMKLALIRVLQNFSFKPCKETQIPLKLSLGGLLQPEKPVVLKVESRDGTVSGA
Chain of Cytochrome P450 2C9 (P11712 whole entry): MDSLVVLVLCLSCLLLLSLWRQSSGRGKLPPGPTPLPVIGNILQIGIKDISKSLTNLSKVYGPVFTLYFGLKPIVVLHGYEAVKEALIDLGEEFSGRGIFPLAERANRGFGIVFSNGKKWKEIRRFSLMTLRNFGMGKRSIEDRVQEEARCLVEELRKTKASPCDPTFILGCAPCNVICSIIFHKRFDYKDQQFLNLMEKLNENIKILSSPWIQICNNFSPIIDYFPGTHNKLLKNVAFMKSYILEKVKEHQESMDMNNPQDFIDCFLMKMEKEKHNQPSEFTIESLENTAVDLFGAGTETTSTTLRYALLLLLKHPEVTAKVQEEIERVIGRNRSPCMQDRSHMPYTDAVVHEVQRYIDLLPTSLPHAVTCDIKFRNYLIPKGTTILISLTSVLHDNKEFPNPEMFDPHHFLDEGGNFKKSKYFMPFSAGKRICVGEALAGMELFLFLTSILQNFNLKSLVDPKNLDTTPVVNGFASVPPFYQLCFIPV

`O=c1cc(-c2ccccc2)oc2cc(O)cc(O)c12` [CHRYSIN]: the IC50 was over 50 µM on Cytochrome P450 2D6, 5.23 µM against Cytochrome P450 2C9 and over 50 µM at Cytochrome P450 3A4.

In turn, `O=c1cc(-c2ccccc2)oc2cc(O)ccc12` [7-HYDROXYFLAVONE] gave an IC50 at Cytochrome P450 1A2 of 0.24 µM. This lies in the sub-micromolar range.
